From patent US4487927A, “3-Phosphonium and 3-phosphoranylidenecephems” (Fujisawa Pharmaceutical Co., Ltd., priority 1979, dated 1984)
Values after ≈ are worked out from the molar mass of the structure shown.

Tests used:
Proteus mirabilis 1 = assay: In vitro antimicrobial activity, two-fold agar-plate dilution method (MIC); type: cell-based; conditions: 37° C. for 20 hours, HI-agar, read-out: minimal inhibitory concentration (MIC)
Method: (§1) In vitro Antimicrobial activity was determined by the two-fold agar-plate dilution method as described below.
(§2) One loopful of an overnight culture of each test strain in Tripticase-soy broth (approximately 10^8 viable cells per ml) was streaked on heart infusion agar (HI-agar containing graded concentrations of antimicrobial agents, and the minimal inhibitory concentration (MIC) was expressed in term of μg/ml after incubation at 37° C. for 20 hours.

Proteus mirabilis 18 = assay: as above; type: cell-based; conditions: 37° C. for 20 hours, HI-agar, read-out: minimal inhibitory concentration (MIC)
Method: as §1, §2

[1] = test system: Batilus subtilis ATCC 6633; assay: as above; type: cell-based; conditions: 37° C. for 20 hours, HI-agar; for MIC: 20 h, read-out: minimal inhibitory concentration (MIC)
Method: as §1, §2

[2] = test system: Staphylococcus aureus 209P JC-1; assay: as above; type: cell-based; conditions: 37° C. for 20 hours, HI-agar; for MIC: Staphylococcus aureus, 209P, 20 h, read-out: minimal inhibitory concentration (MIC)
Method: as §1, §2

Proteus vulgaris 2 = assay: as above; type: cell-based; conditions: 37° C. for 20 hours, HI-agar, read-out: minimal inhibitory concentration (MIC)
Method: as §1, §2

[3] = Determination of serum levels after oral administration in rats (disc method); type: in vivo, SD strain; conditions: rat, 100 mg/kg orally, fasted male SD rats, read-out: Mean Serum Level
Method: (2) Test 2: Determination of serum levels after oral administration of anti-microbial agents in rats
6 weeks old male rats, SD strain, each weighing 160-230 g.
The test compound A (100 mg/kg) was given orally to rats which had been fasted overnight. At specified intervals, the rats were anethetized with chloroform and blood samples were collected from the heart. The anti-microbial levels in each serum sample were determined by the disc method using standard solutions prepared with serum from rats.

Escherichia coli 29 = assay: Protecting effect in experimental mice infection; type: in vivo, ICR strain; Escherichia coli; conditions: Escherichia coli 29 injected intraperitoneally; oral dose one hour after injection; 4 days observation; probit method
Text: (3) Test 3: Protecting effect in experimental mice infection 4-weeks old male mice, ICR strain, each weighing 20.0±1.5 g. 1.3×10^4 cells of pathogenic microorganisms, suspended in 2.5% mucin, were intraperitoneally injected. One hour after the injection, Compound A was orally given.

| MIC (Proteus mirabilis 1) [µg/mL] | MIC (Proteus mirabilis 18) [µg/mL] | MIC [1] [µg/mL] | MIC [2] [µg/mL] | SMILES | further results |
| --- | --- | --- | --- | --- | --- |
| < 0.025 | < 0.025 |  |  | C=CC1=C(C(=O)O)N2C(=O)C(NC(=O)/C(=N\OCC(=O)O)c3csc(N)n3)C2SC1 (stereo not drawn) [Compound M, 7-[2-(2-Aminothiazol-4-yl)-2-carboxymethoxyiminoacetamido]-3-vinyl-3-cephem-4-carboxylic acid (syn isomer)] |  |
|  |  | 0.78 (≈ 1.63 µM) | 1.56 (≈ 3.25 µM) | C=CC1=C(C(=O)O)N2C(=O)C(NC(=O)/C(=N\OCCCCCC)c3csc(N)n3)C2SC1 (stereo not drawn) [Compound K, 7-[2-(2-Aminothiazol-4-yl)-2-hexyloxyiminoacetamido]-3-vinyl-3-cephem-4-carboxylic acid (syn isomer)] |  |
| 0.05 (≈ 0.0925 µM) | 0.05 (≈ 0.0925 µM) |  |  | C=CC1=C(C(=O)O)N2C(=O)C(NC(=O)/C(=N\OCC(=O)OC[C@H](N)C(=O)O)c3csc(N)n3)C2SC1 (stereo partly drawn) [Compound L, 7-[2-(2-Aminothiazol-4-yl)-2-(L-2-amino-2-carboxyethoxycarbonylmethoxyimino)acetamido]-3-vinyl-3-cephem-4-carboxylic acid (syn isomer)] |  |
| 0.1 (≈ 0.209 µM) | 0.1 (≈ 0.209 µM) |  |  | C=CC1=C(C(=O)O)N2C(=O)C(NC(=O)/C(=N\OC/C=C/C(=O)O)c3csc(N)n3)C2SC1 (stereo not drawn) [Compound O, 7-[2-(2-Aminothiazol-4-yl)-2-(trans-3-carboxyallyloxyimino)acetamido]-3-vinyl-3-cephem-4-carboxylic acid (syn isomer)] | MIC (Proteus vulgaris 2): < 0.025 µg/mL |
| 0.1 (≈ 0.208 µM) | 0.05 (≈ 0.104 µM) |  |  | C=CC1=C(C(=O)O)N2C(=O)C(NC(=O)/C(=N\OCCCC(=O)O)c3csc(N)n3)C2SC1 (stereo not drawn) [Compound P, 7-[2-(2-Aminothiazol-4-yl)-2-(3-carboxypropoxyimino)acetamido]-3-vinyl-3-cephem-4-carboxylic acid (syn isomer)] | MIC (Proteus vulgaris 2): < 0.025 µg/mL |
| 0.05 (≈ 0.122 µM) | < 0.025 |  |  | C=CC1=C(C(=O)O)N2C(=O)C(NC(=O)/C(=N\OC)c3csc(N)n3)C2SC1 (stereo not drawn) [Compound I, 7-[2-(2-Aminothiazol-4-yl)-2-methoxyiminoacetamido]-3-vinyl-3-cephem-4-carboxylic acid (syn isomer)] |  |
|  |  | 0.78 (≈ 1.84 µM) | 1.56 (≈ 3.68 µM) | C=CC1=C(C(=O)O)N2C(=O)C(NC(=O)/C(=N\OCC)c3csc(N)n3)C2SC1 (stereo not drawn) [Compound J, 7-[2-(2-Aminothiazol-4-yl)-2-ethoxyiminoacetamido]-3-vinyl-3-cephem-4-carboxylic acid (syn isomer)] |  |
|  |  | 0.78 (≈ 2.04 µM) | 1.56 (≈ 4.08 µM) | C=CC1=C(C(=O)O)N2C(=O)C(NC(=O)C(O)c3csc(N)n3)[C@H]2SC1 (stereo partly shown) [Compound C, 7-[2-(2-Aminothiazol-4-yl)glycolamido]-3-vinyl-3-cephem-4-carboxylic acid] |  |

The remaining lines, values behind:

| SMILES | MIC (Proteus mirabilis 1) [µg/mL] | MIC (Proteus mirabilis 18) [µg/mL] | MIC [1] [µg/mL] | MIC [2] [µg/mL] | further results |
| --- | --- | --- | --- | --- | --- |
| Br.C=CC1=C(C(=O)O)N2C(=O)C(NC(=O)Cc3csc(NC(=N)N)n3)[C@H]2SC1 (stereo partly shown) [Compound G, 7-[2-(2-Guanidinothiazol-4-yl)acetamido]-3-vinyl-3-cephem-4-carboxylic aci d hydrobromide] |  |  | 0.1 | 0.39 |  |
| C=CC1=C(C(=O)O)N2C(=O)C(NC(=O)Cc3cnc(NC=O)s3)[C@H]2SC1 (stereo partly shown) [Compound D, 7-[2-(2-Formamidothiazol-5-yl)acetamido]-3-vinyl-3-cephem-4-carboxylic aci d] |  |  | 0.2 (≈ 0.507 µM) | 0.39 (≈ 0.989 µM) |  |
| C=CC1=C(C(=O)O)N2C(=O)C(NC(=O)Cc3cnc(N)s3)[C@H]2SC1 (stereo partly shown) [Compound E, 7-[2-(2-Aminothiazol-5-yl)acetamido]-3-vinyl-3-cephem-4-carboxylic acid] |  |  | 0.05 (≈ 0.136 µM) | 0.78 (≈ 2.13 µM) |  |
| C=CC1=C(C(=O)O)N2C(=O)C(NC(=O)Cc3csc(N)n3)[C@H]2SC1 (stereo partly shown) [Compound H, 7-[2-(2-Aminothiazol-4-yl)acetamido]-3-vinyl-3-cephem-4-carboxylic acid] |  |  |  |  | minimal inhibitory concentration (MIC) [1]: 0.39 µg/mL (≈ 1.06 µM); minimal inhibitory concentration (MIC) [2]: 0.78 µg/mL (≈ 2.13 µM) |
| C=CC1=C(C(=O)O)N2C(=O)C(NC(=O)Cc3cnc(NS(C)(=O)=O)s3)[C@H]2SC1 (stereo partly shown) [Compound F, 7-[2-(2-Methanesulfonamidothiazol-5-yl)acetamido]-3-vinyl-3-cephem-4-carboxylic acid] |  |  | 0.39 (≈ 0.877 µM) | 1.56 (≈ 3.51 µM) |  |
| C=CC1=C(C(=O)O)N2C(=O)C(NC(=O)Cc3csc(N)n3)[C@H]2SC1 (stereo partly shown) [Compound B, 7-[2-(2-Aminothiazol-4-yl)acetamido]-3-vinyl-3-cephem-4-carboxylic acid] |  |  |  | 1.56 (≈ 4.26 µM) | minimal inhibitory concentration (MIC) [1]: 1.56 µg/mL (≈ 4.26 µM) |
| C=CC1=C(C(=O)O)N2C(=O)C(NC(=O)[C@H](N)c3cccc(NS(C)(=O)=O)c3)[C@H]2SC1 (stereo partly drawn) [Compound A, 7-[2-(3-Methanesulfonamidophenyl)-D-glycinamido]-3-vinyl-3-cephem-4-carboxylic acid] |  |  | 0.1 (≈ 0.221 µM) | 1.56 (≈ 3.45 µM) | concentration at 1 h ([3]; 1 hour): 38500 ng/mL; concentration at 2 h ([3]; 2 hours): 34900 ng/mL; concentration at 4 h ([3]; 4 hours): 31000 ng/mL; concentration at 6 h ([3]; 6 hours): 28800 ng/mL; ED50 value (Escherichia coli 29): 0.480 mg/mouse |
| C=CC1=C(C(=O)O)N2C(=O)C(NC(=O)/C(=N\OCC(=O)O)c3nc(N)sc3Cl)C2SC1 (stereo not drawn) [Compound N, 7-[2-(2-Amino-5-chlorothiazol-4-yl)-2-carboxymethoxyiminoacetamido]-3-vinyl-3-cephem-4-carboxylic acid (syn isomer)] | 0.2 (≈ 0.41 µM) | 0.05 (≈ 0.102 µM) |  |  | MIC (Proteus vulgaris 2): 0.05 µg/mL (≈ 0.102 µM) |
